Reference: patent US20230060873A1, “COMPOUNDS AND METHODS FOR FORMING ION CHANNELS IN BIOLOGICAL MEMBRANES” (Washington University, priority 2021, published 2023)

Assays:
[1] = Single-channel patch clamp recordings, inside-out, on giant multilamellar vesicles; type: biochemical; details: 10 μM; for single channel conductance with different ions: Na+ and NMDG+ compared with K+; for single channel activity with different ions: NaCl or NMDG-Cl; for NPO / Translocation rate: 100 mV
Description: The liposome preparation was based on protocols employed by Jiang et al., Activation of the archaeal ion channel MthK is exquisitely regulated by temperature, Elife 2020, 9, to reconstitute bacterial ion channels in proteoliposomes (giant multilamellar vesicles; GMLV). The method is adapted to produce plain liposomes. A total of 25 mg of asolectin from soybean (Avanti) was dissolved in 1 mL of chloroform, dried under argon, and kept overnight under vacuum. The dried lipids were resuspended using bath sonication in a resuspension solution (250 mM KCl, 30 mM HEPES, 0.1 mM CaCl2, pH adjusted at 7.6 with KOH) to a final concentration of 15 mg/mL and stored in 30 μL aliquots at −80° C. Aliquots were thawed and placed on a clean glass slide and dried in a desiccator under vacuum at room temperature. The lipids were then rehydrated with 50 μL resuspension solution for more than 2 h to yield the GMLVs.
Direct detection of electrophysiological activity in biological membranes is the gold standard for any putative ion channel. The 6-O-10 and 6-A-10 compounds were tested for ion channel activity by using the patch clamp technique in the inside-out configuration on giant multilamellar vesicles (GMLV) of asolectin.
Single-channel recordings were obtained by patch-clamping GMLV. After seal formation, patches were excised to obtain the inside-out configuration, and then the pipette solution and the bath solution were assumed to be “external” and “internal” solutions, respectively. Pipettes of borosilicate capillary glass 2-000-100 (Drummond Scientific Company) were pulled in a horizontal pipette puller P-97 (Sutter Instrument). Pipette resistance was 5-10 MΩ in any of the solutions tested. Data were acquired with an Axopatch 200A (Axon Instruments) amplifier. Current signals were sampled with a 16-bit A/D converter Axon Digi-data 1550B (Axon Instruments) at a sampling rate of 100 kHz and low-pass filtered at 10 kHz. Data was acquired using Clampex 10.7 (Molecular Devices) acquisition software and analysed with Clampfit 10.7 software (Axon Instruments) and Origin. The temperature in the room was approximately 21° C.
For gap-free experiments, symmetrical (same solution in pipette and bath) KCl solution (200 mM KCl, 30 mM HEPES, pH adjusted to 7.4 with KOH), NaCl solution (200 mM NaCl, 30 mM HEPES, pH adjusted to 7.4 with NaOH) or NMDG-Cl solution (200 mM NMDG, 30 mM HEPES, pH adjusted to 7.4 with HCl) were used for both the internal and external solutions. All the traces were recorded at 100 mV for 5 minutes.
FIGS. 12-14 show single channel activity elicited by 10 μM 6-O-10 in the presence of symmetrical KCl, NaCl and NMDG-Cl solutions, respectively. FIGS. 15-17 show single channel activity elicited by 10 μM 6-A-10 in the presence of symmetrical KCl, NaCl and NMDG-Cl solutions, respectively. Histograms for a total recording time of 900 s are included below every record.
Ion channel activity was measured in the presence of symmetrical 200 mM KCl, NaCl or NMDG-Cl at a concentration of 10 μM for each compound. Three different records of 300 s each were analyzed for every condition shown in (FIGS. 12-17).
To estimate the relative permeabilities of various ions, the product of number of channels (N) and open probability (Po) and the conductance from the amplitude histograms must be taken into consideration (Table 1). Unlike measurements from single ion channels, the present analysis is not constrained to recordings from patches that contain single functional channels. Thus, the possibility that the supramolecular assembly of synthetic channels is dynamic, and that new channels form during recordings with different oligomerization states cannot be ruled out. The only parameter that can be controlled is the concentration of the compounds in solution. All measurements reported here were obtained at 10 μM solution concentration. […]

Bacillus subtilis = assay: Toxicity (MIC) of MAcBCE and MAkBCE compounds on B. subtilis; type: cell-based; details: B. subtilis 168 WT with pRB374, 12 h, up to 400 μM
Description: XL1 blue strain Escherichia coli cells transformed with pET28a plasmid containing a kanamycin resistance gene, were grown at 37° C. in 2 mL of LB medium (Miller's LB broth, Research Products International) supplemented with 50 μg/mL of kanamycin, until the optical density (OD600) reached 0.6. The starting density of bacteria in the remainder of the experiments was a 1/100 dilution of this bacterial density, which was split into 4 mL cultures. A series of 400, 100, 10 and 5 mM stock solutions of each monoacylated benzo(crown-ether) (MAcBCE) and monoalkylated benzo(crown-ether) (MAkBCE) compounds in trifluoroethanol (TFE) were diluted by addition to the 4 mL cultures to reach final concentrations of 400, 200, 100, 50, 20, 15, 10, 5, 4, 3, 2 and 1 μM. The final TFE concentration was never higher than 0.1% v/v. Negative controls in the presence of TFE 0.1% v/v or in the absence of any treatment for each batch gave similar bacterial growth. The cultures were incubated at 37° C. with agitation for 12 h. Bacillus subtilis (168 WT) toxicity tests were carried out using an identical protocol, except they were transformed with the shuttle plasmid pRB374 in the presence of 5 μg/mL of kanamycin. […] Each compound was assayed a minimum of three times at each tested concentration.
The cytotoxicity of MABCE compounds was determined by measuring the MIC in liquid cultures of either the gram-negative bacteria Escherichia coli or the gram-positive bacteria Bacillus subtilis. […] As some curves overlap, portions of them are hidden. Values of MIC of 400 μM indicate that the value was either 400 μM, or it was higher and then was not determined. Each compound was assayed a minimum of three times at each different concentration. MICs for 5-A-4, 5-A-11, 6-A-11 and 6-O-11 could not be determined because the compounds were not soluble in TFE. While E. coli was not susceptible to any of the tested compounds at concentrations as high as 400 μM (data not shown), B. subtilis was susceptible to MABCE compounds bearing 15-crown-5 and 18-crown-6 scaffolds, but not to compounds containing a 12-crown-4 scaffold, as shown in FIG. 1.

SMILES	single channel conductance with different ions [1]	efficiency of K+ permeation relative to NMDG+ ([1]; from translocation rates) [fold]	efficiency of K+ permeation relative to Na+ ([1]; from translocation rates) [fold]	single channel activity with different ions ([1]; symmetrical 200 mM KCl)	NPO ([1]; symmetrical 200 mM KCl)	Translocation rate ([1]; symmetrical 200 mM KCl)	NPO ([1]; symmetrical 200 mM NMDG-Cl)	Translocation rate ([1]; symmetrical 200 mM NMDG-Cl)	NPO ([1]; symmetrical 200 mM NaCl)	Translocation rate ([1]; symmetrical 200 mM NaCl)	toxicity / susceptibility of B. subtilis (MIC, FIG. 1) (Bacillus subtilis)	efficiency of K+ transport compared to 6-O-10 [1]
CCCCCCCCCC(=O)c1ccc2c(c1)OCCOCCOCCOCCOCCO2 [Compound 6-O-10, 1-(2,3,5,6,8,9,11,12,14,15-decahydrobenzo[b][1,4,7,10,13,16]hexaoxacyclooctadecin-18-yl)decan-1-one]	only half that observed in the presence of K^+	7	3.5	highest in the presence of K^+ and Na^+ as compared to NMDG^+	0.58 ± 0.16	43.4 ± 5.8 10^6/sec	0.25 ± 0.13	7.1 ± 3.4 10^6/sec	0.56 ± 0.10	11.3 ± 1.1 10^6/sec	most toxic	
CCCCCCCCCCc1ccc2c(c1)OCCOCCOCCOCCOCCO2 [Compound 6-A-10, 18-decyl-2,3,5,6,8,9,11,12,14,15-decahydrobenzo[b][1,4,7,10,13,16]hexaoxacyclooctadecine]	very similar with the different ions			does not vary significantly	0.18 ± 0.02	3.2 ± 0.3 10^6/sec	0.19 ± 0.12	5.0 ± 1.9 10^6/sec	0.16 ± 0.02	4.5 ± 0.7 10^6/sec	most toxic	an order of magnitude less efficient
